ChEMBL document CHEMBL1201862, “PubChem BioAssay data set” (2004)
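96-well plates; 48 h exposure; 5 concentrations. Endpoints by linear interpolation between flanking doses. Not reached: highest tested concentration assigned. The concentration for 50% growth inhibition is given as GI50.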 The source made the active and inactive calls. No stated cut-off is given here; in the data, active = GI50 up to about 1.1 µM and inactive = higher.

What was measured:
Test in all cases: inhibition of tumour cell growth, NCI panel, 48 h
[1] = tested on: 786-0
[2] = tested on: A498
[3] = tested on: A549
[4] = tested on: ACHN
[5] = tested on: BT-549
[6] = tested on: CAKI-1
[7] = tested on: COLO 205
[8] = tested on: DU-145
[9] = tested on: EKVX
[10] = tested on: HCT-116
[11] = tested on: HCT-15
[12] = tested on: HL-60
[13] = tested on: HOP-62
[14] = tested on: HOP-92
[15] = tested on: HT-29
[16] = tested on: Hs-578T
[17] = tested on: IGROV-1
[18] = tested on: K562
[19] = tested on: KM12
[20] = tested on: LOX IMVI
[21] = tested on: M14
[22] = tested on: MCF7
[23] = tested on: MDA-MB-231
[24] = tested on: MDA-MB-435
[25] = tested on: MDA-N
[26] = tested on: MOLT-4
[27] = tested on: Malme-3M
[28] = tested on: NCI-H226
[29] = tested on: NCI-H23
[30] = tested on: NCI-H460
[31] = tested on: NCI-H522
[32] = tested on: NCI/ADR-RES
[33] = tested on: OVCAR-3
[34] = tested on: OVCAR-4
[35] = tested on: OVCAR-5
[36] = tested on: OVCAR-8
[37] = tested on: PC-3
[38] = tested on: RPMI-8226
[39] = tested on: RXF 393
[40] = tested on: SF-268
[41] = tested on: SF-295
[42] = tested on: SF-539
[43] = tested on: SK-MEL-28
[44] = tested on: SK-MEL-2
[45] = tested on: SK-MEL-5
[46] = tested on: SK-OV-3
[47] = tested on: SN12C
[48] = tested on: SNB-19
[49] = tested on: SR
[50] = tested on: SW-620
[51] = tested on: T47D
[52] = tested on: TK-10
[53] = tested on: U-251
[54] = tested on: UACC-257
[55] = tested on: UACC-62
[56] = tested on: UO-31
[57] = tested on: SNB-75
[58] = tested on: CCRF-CEM
[59] = tested on: HCC 2998

C[N+]1(C)CCc2cc(O)c(O)cc2C1Cc1ccc(O)c(O)c1 (stereo unspecified)
GI50 [1]: 40.6 µM (inactive) | GI50 [2]: > 100 µM (inactive) | GI50 [3]: > 100 µM (inactive) | GI50 [4]: 35.3 µM (inactive) | GI50 [5]: > 100 µM (inactive) | GI50 [6]: 50.9 µM (inactive) | GI50 [7]: > 100 µM (inactive) | GI50 [8]: > 100 µM (inactive) | GI50 [9]: > 100 µM (inactive) | GI50 [10]: 22.4 µM (inactive) | GI50 [11]: 36 µM | GI50 [12]: 18.3 µM (inactive) | GI50 [13]: > 100 µM (inactive) | GI50 [14]: 27.1 µM (inactive) | GI50 [15]: 34.8 µM (inactive) | GI50 [16]: 86.9 µM (inactive) | GI50 [17]: 28 µM (inactive) | GI50 [18]: 34 µM (inactive) | GI50 [19]: > 100 µM (inactive) | GI50 [20]: 27.7 µM (inactive) | GI50 [21]: 92.7 µM (inactive) | GI50 [22]: 19.8 µM (inactive) | GI50 [23]: 31.1 µM (inactive) | GI50 [24]: 20.2 µM (inactive) | GI50 [25]: 32.2 µM (inactive) | GI50 [26]: 23 µM (inactive) | GI50 [27]: 32.1 µM (inactive) | GI50 [28]: 39.2 µM (inactive) | GI50 [29]: > 100 µM (inactive) | GI50 [30]: 63.7 µM (inactive) | GI50 [31]: 22.5 µM (inactive) | GI50 [32]: 79.4 µM (inactive) | GI50 [33]: 69 µM (inactive) | GI50 [34]: 22.1 µM (inactive) | GI50 [35]: > 100 µM (inactive) | GI50 [36]: 35.2 µM (inactive) | GI50 [37]: > 100 µM (inactive) | GI50 [38]: 22.2 µM (inactive) | GI50 [39]: 39.9 µM (inactive) | GI50 [40]: 39.6 µM (inactive) | GI50 [41]: > 100 µM (inactive) | GI50 [42]: 50.4 µM (inactive) | GI50 [43]: 99.8 µM (inactive) | GI50 [44]: 1.11 µM (active) | GI50 [45]: 48.2 µM (inactive) | GI50 [46]: > 100 µM (inactive) | GI50 [47]: 38.2 µM (inactive) | GI50 [48]: > 100 µM (inactive) | GI50 [49]: 34.8 µM (inactive) | GI50 [50]: 28.4 µM (inactive) | GI50 [51]: 23 µM (inactive) | GI50 [52]: 94.8 µM (inactive) | GI50 [53]: > 100 µM (inactive) | GI50 [54]: 31.2 µM (inactive) | GI50 [55]: 29.9 µM (inactive) | GI50 [56]: 92 µM (inactive)

Cc1ncc(CSc2ccccc2N)c(CO)c1O
GI50 [1]: > 100 µM (inactive) | GI50 [2]: > 100 µM (inactive) | GI50 [3]: > 100 µM (inactive) | GI50 [4]: > 100 µM (inactive) | GI50 [5]: > 100 µM (inactive) | GI50 [6]: > 100 µM (inactive) | GI50 [7]: > 100 µM (inactive) | GI50 [8]: > 100 µM (inactive) | GI50 [9]: > 100 µM (inactive) | GI50 [10]: > 100 µM (inactive) | GI50 [11]: > 100 µM | GI50 [13]: > 100 µM (inactive) | GI50 [14]: > 100 µM (inactive) | GI50 [15]: > 100 µM (inactive) | GI50 [16]: > 100 µM (inactive) | GI50 [17]: > 100 µM (inactive) | GI50 [18]: > 100 µM (inactive) | GI50 [19]: > 100 µM (inactive) | GI50 [20]: > 100 µM (inactive) | GI50 [21]: > 100 µM (inactive) | GI50 [22]: > 100 µM (inactive) | GI50 [23]: > 100 µM (inactive) | GI50 [24]: > 100 µM (inactive) | GI50 [25]: > 100 µM (inactive) | GI50 [26]: > 100 µM (inactive) | GI50 [27]: > 100 µM (inactive) | GI50 [28]: > 100 µM (inactive) | GI50 [29]: > 100 µM (inactive) | GI50 [31]: > 100 µM (inactive) | GI50 [32]: > 100 µM (inactive) | GI50 [33]: > 100 µM (inactive) | GI50 [34]: > 100 µM (inactive) | GI50 [35]: > 100 µM (inactive) | GI50 [36]: > 100 µM (inactive) | GI50 [37]: > 100 µM (inactive) | GI50 [38]: > 100 µM (inactive) | GI50 [39]: > 100 µM (inactive) | GI50 [40]: > 100 µM (inactive) | GI50 [41]: > 100 µM (inactive) | GI50 [42]: > 100 µM (inactive) | GI50 [43]: > 100 µM (inactive) | GI50 [44]: > 100 µM (inactive) | GI50 [45]: > 100 µM (inactive) | GI50 [46]: > 100 µM (inactive) | GI50 [47]: > 100 µM (inactive) | GI50 [48]: > 100 µM (inactive) | GI50 [57]: > 100 µM (inactive) | GI50 [49]: > 100 µM (inactive) | GI50 [50]: > 100 µM (inactive) | GI50 [51]: > 100 µM (inactive) | GI50 [52]: > 100 µM (inactive) | GI50 [53]: > 100 µM (inactive) | GI50 [54]: > 100 µM (inactive) | GI50 [55]: 65.8 µM (inactive)

c1ccc(C2OCC(OC3CCCCO3)CO2)cc1 (stereo unspecified)
GI50 [1]: > 100 µM (inactive) | GI50 [2]: > 100 µM (inactive) | GI50 [3]: > 100 µM (inactive) | GI50 [4]: > 100 µM (inactive) | GI50 [5]: > 100 µM (inactive) | GI50 [6]: > 100 µM (inactive) | GI50 [58]: > 10 µM (inactive) | GI50 [7]: > 100 µM (inactive) | GI50 [8]: > 100 µM (inactive) | GI50 [9]: > 100 µM (inactive) | GI50 [59]: > 100 µM (inactive) | GI50 [10]: > 100 µM (inactive) | GI50 [11]: > 100 µM | GI50 [12]: > 100 µM (inactive) | GI50 [13]: > 100 µM (inactive) | GI50 [14]: > 100 µM (inactive) | GI50 [15]: > 100 µM (inactive) | GI50 [16]: 2.36 µM (inactive) | GI50 [17]: > 100 µM (inactive) | GI50 [18]: > 100 µM (inactive) | GI50 [20]: > 100 µM (inactive) | GI50 [21]: > 100 µM (inactive) | GI50 [22]: > 100 µM (inactive) | GI50 [23]: > 100 µM (inactive) | GI50 [24]: > 100 µM (inactive) | GI50 [25]: > 100 µM (inactive) | GI50 [26]: 5.24 µM (inactive) | GI50 [27]: > 100 µM (inactive) | GI50 [28]: > 100 µM (inactive) | GI50 [29]: > 100 µM (inactive) | GI50 [30]: > 100 µM (inactive) | GI50 [31]: > 100 µM (inactive) | GI50 [32]: > 100 µM (inactive) | GI50 [33]: > 100 µM (inactive) | GI50 [34]: > 100 µM (inactive) | GI50 [35]: > 100 µM (inactive) | GI50 [36]: > 100 µM (inactive) | GI50 [37]: > 100 µM (inactive) | GI50 [38]: > 100 µM (inactive) | GI50 [40]: > 100 µM (inactive) | GI50 [41]: > 100 µM (inactive) | GI50 [42]: > 100 µM (inactive) | GI50 [43]: > 100 µM (inactive) | GI50 [44]: > 100 µM (inactive) | GI50 [45]: > 100 µM (inactive) | GI50 [46]: > 100 µM (inactive) | GI50 [47]: > 100 µM (inactive) | GI50 [48]: > 100 µM (inactive) | GI50 [49]: > 100 µM (inactive) | GI50 [50]: > 100 µM (inactive) | GI50 [51]: > 100 µM (inactive) | GI50 [52]: > 100 µM (inactive) | GI50 [53]: > 100 µM (inactive) | GI50 [54]: > 100 µM (inactive) | GI50 [55]: > 100 µM (inactive) | GI50 [56]: 75.5 µM (inactive)
